Results: patent US9096624B2 (OSI Pharmaceuticals, LLC, priority 2009, dated 2015)
pIC50: −log10 of the molar value.

Legend:
FAK [1] = target: T1, FAK (Homo sapiens, UniProt Q05397); experiment: Cell-based capture ELISA for inhibition of FAK autophosphorylation [pY397] in MiaPaCa2 cells
Method: Cell-Based Assays for Inhibition of FAK Autophosphorylation: MiaPaCa2 and U87MG
ELISA kit from Invitrogen (KHO0441).
Reagents Provided in Biosource FAK [pY397]
The cells were then suspended in cell assay medium.

FAK [2] = target: T1, FAK; experiment: biochemical
[3] = MIA-PaCa2 cells on fibronectin, 2 h, no plasma, read-out: Mean FAK Cell Mechanistic IC50 MIA-PaCa2
[4] = MIA-PaCa2 cells, + 50% human plasma, read-out: Mean FAK Cell Mechanistic IC50 + 50% hP MIA-PaCa2
[5] = MIA-PaCa2 cells, + 50% mouse plasma (Table 3), read-out: Mean FAK Cell Mechanistic IC50 + 50% mP MIA-PaCa2
[6] = MIA-PaCa2 cells, + 50% mouse plasma (Table 2), read-out: Mean FAK Cell Mechanistic IC50 + 50% mP MIA-PaCa2

T1 sequence (Q05397 whole entry): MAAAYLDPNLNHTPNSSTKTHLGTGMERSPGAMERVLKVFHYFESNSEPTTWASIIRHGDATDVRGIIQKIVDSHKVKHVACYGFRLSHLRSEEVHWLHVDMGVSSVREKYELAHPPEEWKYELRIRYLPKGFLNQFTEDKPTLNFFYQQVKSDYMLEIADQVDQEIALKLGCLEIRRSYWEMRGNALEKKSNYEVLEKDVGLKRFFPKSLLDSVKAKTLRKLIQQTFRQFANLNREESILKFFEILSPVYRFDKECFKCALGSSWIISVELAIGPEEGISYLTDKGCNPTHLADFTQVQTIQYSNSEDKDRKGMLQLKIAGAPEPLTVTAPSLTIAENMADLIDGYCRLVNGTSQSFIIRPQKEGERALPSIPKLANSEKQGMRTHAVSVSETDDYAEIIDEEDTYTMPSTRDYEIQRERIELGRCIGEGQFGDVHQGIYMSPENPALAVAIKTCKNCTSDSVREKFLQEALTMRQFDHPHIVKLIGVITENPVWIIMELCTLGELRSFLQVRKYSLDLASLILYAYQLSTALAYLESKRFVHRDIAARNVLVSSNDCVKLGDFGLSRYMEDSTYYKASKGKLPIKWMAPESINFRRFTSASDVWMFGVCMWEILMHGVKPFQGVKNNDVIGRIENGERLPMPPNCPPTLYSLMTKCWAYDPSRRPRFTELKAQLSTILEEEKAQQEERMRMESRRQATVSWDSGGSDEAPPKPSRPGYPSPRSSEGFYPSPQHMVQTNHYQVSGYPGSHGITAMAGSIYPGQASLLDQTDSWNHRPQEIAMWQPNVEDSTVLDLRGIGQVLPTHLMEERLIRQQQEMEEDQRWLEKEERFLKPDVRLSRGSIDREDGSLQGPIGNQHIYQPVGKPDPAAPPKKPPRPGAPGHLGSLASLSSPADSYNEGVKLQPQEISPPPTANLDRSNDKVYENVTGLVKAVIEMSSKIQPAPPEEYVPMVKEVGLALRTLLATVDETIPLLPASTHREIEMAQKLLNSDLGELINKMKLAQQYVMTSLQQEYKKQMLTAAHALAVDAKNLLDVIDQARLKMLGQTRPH

| Structure (SMILES) | pIC50 (FAK [1]; [3]) | pIC50 (FAK [1]; [4]) | pIC50 (FAK [2]) | pIC50 (FAK [1]; [5]) | pIC50 (FAK [1]; [6]) |
| --- | --- | --- | --- | --- | --- |
| CCOP(C)(=O)Cc1ccc(Nc2ncc(C(F)(F)F)c(Nc3ccc(C4CCC(O)CC4)c4c3C(=O)N(C)C4)n2)cc1 (stereo not drawn) [Example 79, Ethyl (4-{[4-{[7-(4-hydroxycyclohexyl)-2-methyl-3-oxo-2,3-dihydro-1H-isoindol-4-yl]amino}-5-(trifluoromethyl)pyrimidin-2-yl]amino}benzyl)methylphosphinate] | > 6.00 | > 6.00 | > 6.00 |  |  |
| CCOP(=O)(Cc1ccc(Nc2ncc(C(F)(F)F)c(Nc3cccc4c3C(=O)N(C)C4(C)C)n2)cc1)OCC [Example 149, Diethyl [4-({5-(trifluoromethyl)-4-[(1,1,2-trimethyl-3-oxo-2,3-dihydro-1H-isoindol-4-yl)amino]pyrimidin-2-yl}amino)benzyl]phosphonate] |  |  | > 6.00 | 5.00 to 6.00 |  |
| CCOP(=O)(Cc1ccc(Nc2ncc(C(F)(F)F)c(Nc3ccc(-c4ccn(CCO)n4)c4c3C(=O)N(C)C4)n2)cc1)OCC [Example 142, Diethyl (4-{[4-({7-[1-(2-hydroxyethyl)-1H-pyrazol-3-yl]-2-methyl-3-oxo-2,3-dihydro-1H-isoindol-4-yl}amino)-5-(trifluoromethyl)pyrimidin-2-yl]amino}benzyl)phosphonate] |  |  | > 6.00 | > 6.00 |  |
| CCOP(C)(=O)Cc1ccc(Nc2ncc(C(F)(F)F)c(Nc3ccc([C@H]4CC[C@H](O)CC4)c4c3C(=O)N(C)C4)n2)cc1 (stereo partly drawn) [Example 174, Ethyl (4-{[4-{[7-(trans-4-hydroxycyclohexyl)-2-methyl-3-oxo-2,3-dihydro-1H-isoindol-4-yl]amino}-5-(trifluoromethyl)pyrimidin-2-yl]amino}benzyl) methylphosphinate] |  |  | > 6.00 | > 6.00 |  |
| CCOP(=O)(Cc1ccc(Nc2ncc(Br)c(Nc3ccccc3C(=O)NC)n2)cc1)OCC [Example 49, Diethyl {4-[(5-bromo-4-{[2-(methylcarbamoyl)phenyl]amino}pyrimidin-2-yl)amino]benzyl}phosphonate] | > 6.00 | > 6.00 | > 6.00 |  |  |
| CCOP(C)(=O)Cc1ccc(Nc2ncc(C(F)(F)F)c(Nc3ccccc3C(=O)NC)n2)cc1 (stereo not drawn) [Example 22, Ethyl methyl(4-{[4-{[2-(methylcarbamoyl)phenyl]amino}-5-(trifluoromethyl)pyrimidin-2-yl]amino}benzyl)phosphinate] | > 6.00 | > 6.00 | > 6.00 |  |  |
| CCOP(=O)(Cc1ccc(Nc2ncc(C(F)(F)F)c(NCc3cccc([S+](C)[O-])c3)n2)cc1)OCC (stereo not drawn) [Example 47, diethyl (4-{[4-{[3-(methylsulfinyl)benzyl]amino}-5-(trifluoromethyl)pyrimidin-2-yl]amino}benzyl)phosphonate] |  |  | > 6.00 |  | 5.00 to 6.00 |
| CCOP(=O)(OCC)C(C)(C)c1ccc(Nc2ncc(C(F)(F)F)c(Nc3ccccc3C(=O)NC)n2)cc1 [Example 21, Diethyl [2-(4-{[4-{[2-(methylcarbamoyl)phenyl]amino}-5-(trifluoromethyl)pyrimidin-2-yl]amino}phenyl)propan-2-yl]phosphonate] | > 6.00 | > 6.00 | > 6.00 |  |  |
| CCOP(=O)(Cc1ccc(Nc2ncc(C(F)(F)F)c(Nc3ccc([C@H]4CC[C@@H](O)CC4)c4c3C(=O)N(C)C4)n2)c(OC)c1)OCC [Example 94, Diethyl (4-{[4-{[7-(cis-4-hydroxycyclohexyl)-2-methyl-3-oxo-2,3-dihydro-1H-isoindol-4-yl]amino}-5-(trifluoromethyl)pyrimidin-2-yl]amino}-3-methoxybenzyl)phosphonate] |  |  | > 6.00 |  | > 6.00 |
| CCOP(=O)(Cc1ccc(Nc2ncc(C(F)(F)F)c(Nc3ccc(N4CCN(CC(=O)O)CC4)c4c3C(=O)N(C)C4)n2)cc1)OCC [Example 251, [4-(7-{[2-({4-[(Diethoxyphosphoryl)methyl]phenyl}amino)-5-(trifluoromethyl)pyrimidin-4-yl]amino}-2-methyl-1-oxo-2,3-dihydro-1H-isoindol-4-yl)piperazin-1-yl]acetic acid] |  |  | > 6.00 | > 6.00 |  |
| CCOP(=O)(Cc1ccc(Nc2ncc(C(F)(F)F)c(Nc3ccc(N4CCCC(O)C4)c4c3C(=O)N(C)C4)n2)c(OC)c1)OCC (stereo not drawn) [Example 86, Diethyl (4-{[4-{[7-(3-hydroxypiperidin-1-yl)-2-methyl-3-oxo-2,3-dihydro-1H-isoindol-4-yl]amino}-5-(trifluoromethyl)pyrimidin-2-yl]amino}-3-methoxybenzyl)phosphonate] |  |  | > 6.00 |  | > 6.00 |
| CCOP(C)(=O)Cc1ccc(Nc2ncc(C(F)(F)F)c(Nc3ccc(C#CC(C)(C)O)c4c3C(=O)N(C)C4)n2)cc1 (stereo not drawn) [Example 75] | > 6.00 | > 6.00 | > 6.00 |  |  |
| CNC(=O)c1ccccc1Nc1nc(Nc2ccc(CP(C)(C)=O)cc2)ncc1C(F)(F)F [Example 16, 2-{[2-({4-[(Dimethylphosphoryl)methyl]phenyl}amino)-5-(trifluoromethyl)pyrimidin-4-yl]amino}-N-methylbenzamide] | > 6.00 | > 6.00 | > 6.00 |  | > 6.00 |
| CC(C)P(=O)(Cc1cccc(Nc2ncc(C(F)(F)F)c(NCc3cccnc3N(C)S(C)(=O)=O)n2)c1)C(C)C [Example 9, N-[3-({[2-({3-[(Dipropan-2-ylphosphoryl)methyl]phenyl}amino)-5-(trifluoromethyl)pyrimidin-4-yl]amino}methyl)pyridin-2-yl]-N-methylmethanesulfonamide] | > 6.00 | > 6.00 | > 6.00 |  | > 6.00 |
| CN(c1ncccc1CNc1nc(Nc2ccc(CP(=O)(OCCc3ccsc3)OCCc3ccsc3)cc2)ncc1C(F)(F)F)S(C)(=O)=O [Example 33, bis[2-(thiophen-3-yl)ethyl] [4-({4-[({2-[methyl(methylsulfonyl)amino]pyridin-3-yl}methyl)amino]-5-(trifluoromethyl)pyrimidin-2-yl}amino)benzyl]phosphonate] |  |  | > 6.00 |  | < 5.00 |
| CNC(=O)c1ccccc1Nc1nc(Nc2cccc(CP(C)(C)=O)c2)ncc1C(F)(F)F [Example 17, 2-{2-[3-(Dimethylphosphinoylmethyl)phenylamino]-5-trifluoromethylpyrimidin-4-ylamino}-N-methylbenzamide] | > 6.00 | > 6.00 | > 6.00 |  | > 6.00 |
| CCOP(C)(=O)Cc1ccc(Nc2ncc(C(F)(F)F)c(Nc3ccccc3C(=O)NC)n2)c(OC)c1 (stereo not drawn) [Example 52, Ethyl (3-methoxy-4-{[4-{[2-(methylcarbamoyl)phenyl]amino}-5-(trifluoromethyl)pyrimidin-2-yl]amino}benzyl)methylphosphinate] | > 6.00 | > 6.00 | > 6.00 |  |  |
| CNC(=O)c1ccccc1Nc1nc(Nc2ccc(CP(=O)(OCC(F)(F)F)OCC(F)(F)F)cc2OC)ncc1C(F)(F)F [Example 114, Bis(2,2,2-trifluoroethyl)(3-methoxy-4-{[4-{[2-(methylcarbamoyl)phenyl]amino}-5-(trifluoromethyl)pyrimidin-2-yl]amino}benzyl)phosphonate] |  |  | > 6.00 | > 6.00 |  |
| CCOP(=O)(Cc1ccc(Nc2ncc(C(F)(F)F)c(Nc3ccc([C@H]4CC[C@@H](O)CC4)cc3C(=O)N(C)C)n2)c(OC)c1)OCC [Example 194, Diethyl (4-{[4-{[2-(dimethylcarbamoyl)-4-(cis-4-hydroxycyclohexyl)phenyl]amino}-5-(trifluoromethyl)pyrimidin-2-yl]amino}-3-methoxybenzyl)phosphonate] |  |  | > 6.00 | 5.00 to 6.00 |  |
| CCOP(=O)(Cc1ccc(Nc2ncc(C(F)(F)F)c(Nc3ccc([C@H]4CC[C@H](C(=O)O)CC4)c4c3C(=O)N(C)C4)n2)c(OC)c1)OCC [Example 90, Trans-4-(7-{[2-({4-[(diethoxyphosphoryl)methyl]-2-methoxyphenyl}amino)-5-(trifluoromethyl)pyrimidin-4-yl]amino}-2-methyl-1-oxo-2,3-dihydro-1H-isoindol-4-yl)cyclohexanecarboxylic acid] |  |  | > 6.00 |  | > 6.00 |
| COP(=O)(OC)c1ccc(Nc2ncc(C(F)(F)F)c(NCc3cccnc3N(C)S(C)(=O)=O)n2)cc1 [Example 36, Dimethyl [4-({4-[({2-[methyl(methylsulfonyl)amino]pyridin-3-yl}methyl)amino]-5-(trifluoromethyl)pyrimidin-2-yl}amino)phenyl]phosphonate] |  |  | > 6.00 |  | > 6.00 |
| CCOP(=O)(Cc1ccc(Nc2ncc(C(F)(F)F)c(Nc3ccc([C@H]4CC[C@](C)(O)CC4)c4c3C(=O)N(C)C4)n2)cc1)OCC [Example 183, Diethyl (4-{[4-{[7-(trans-4-hydroxy-4-methylcyclohexyl)-2-methyl-3-oxo-2,3-dihydro-1H-isoindol-4-yl]amino}-5-(trifluoromethyl)pyrimidin-2-yl]amino}benzyl)phosphonate] |  |  | > 6.00 | > 6.00 |  |
| CNC(=O)c1ccccc1Nc1nc(Nc2ccc(CP(=O)(OCCOC)OCCOC)cc2)ncc1C(F)(F)F [Example 185, Bis(2-methoxyethyl) (4-{[4-{[2-(methylcarbamoyl)phenyl]amino}-5-(trifluoromethyl)pyrimidin-2-yl]amino}benzyl)phosphonate] |  |  | > 6.00 | > 6.00 |  |
| CCOc1cc(CP(=O)(OCC)OCC)ccc1Nc1ncc(C(F)(F)F)c(Nc2ccc([C@H]3CC[C@@H](C(=O)O)CC3)c3c2C(=O)N(C)C3)n1 [Example 257, cis-4-(7-{[2-({4-[(Diethoxyphosphoryl)methyl]-2-ethoxyphenyl}amino)-5-(trifluoromethyl)pyrimidin-4-yl]amino}-2-methyl-1-oxo-2,3-dihydro-1H-isoindol-4-yl)cyclohexanecarboxylic acid] |  |  | > 6.00 | > 6.00 |  |
